The values below come from patent publication US20220354963A1, “EXTRACELLULAR VESICLE LINKED TO MOLECULES AND USES THEREOF” (Codiak BioSciences, Inc., priority 2019, published 2022).

Holding throughout (assay type): cell-based, human
For data set [1], the system named is STAT3 mRNA. Description: STAT3 mRNA expression in IL-6 stimulated PANC-1 cells, branched DNA assay. The note with it: 5 point DR data.
Data set [2] relates to STAT3 mRNA. The data set is described as above. The note with it: for STAT3 Inhibition 2 nM / STAT3 Inhibition 20 nM: 2 point DR data; for IC50: 5 point DR data, Lipofectamine2000 transfection, 48 hr, read-out: STAT3 PANC1 IC50 Prism. Here is the method: The ASOs of the present disclosure were tested for their ability to reduce STAT3 mRNA expression in IL-6 stimulated PANC-1 cells. The PANC-1 cells were grown in cell culture media and seeded onto a 96 well plate at a density of 20,000 cells/well. ASOs were tested in two separate cohorts: 2 doses or 5 doses were given to the PANC-1 cells (See TABLE 3) at final concentrations of 20 nM and 2 nM, respectively. The assay used Lipofectamine2000 transfection and a 48 hr treatment cycle, with incubation at 37° C. and 5% C02. Analysis of the mRNA expression was then carried out using a branched DNA assay.

Data set [3] deals with GAPDH. Description: GAPDH inhibition in PANC-1 cells, same assay. The note with it: 2 point DR data. Here is the method: The PANC-1 cells were grown in cell culture media and seeded onto a 96 well plate at a density of 20,000 cells/well. ASOs were tested in two separate cohorts: 2 doses or 5 doses were given to the PANC-1 cells (See TABLE 3) at final concentrations of 20 nM and 2 nM, respectively. The assay used Lipofectamine2000 transfection and a 48 hr treatment cycle, with incubation at 37° C. and 5% C02. Analysis of the mRNA expression was then carried out using a branched DNA assay.

In data set [4] the test system is GAPDH. Description: GAPDH inhibition in HEK-293 cells, same assay. Also noted: GAPDH max inhibition: unit not given here. To be noted: for 2D GAPDH 20 nM inhibition: 2D (dual-dose); for GAPDH max inhibition: Table 6.
Data set [5] deals with NRas mRNA. Description: NRas mRNA expression in HEK-293 cells, branched DNA assay. Also noted: NRAS max inhibition: unit not given here. To be noted: for IC20 / IC50 / IC80 / max. inhib. [%]:: HEK293 cells: dose-response; for NRAS max inhibition: Table 6. As for the experimental part: The ASOs of the present disclosure were tested for their ability to reduce NRas mRNA expression in HEK-293 cells. The HEK-293 cells were grown in cell culture media and seeded onto a 96 well plate at a density of 20,000 cells/well. ASOs were tested in two separate cohorts: 2 doses or 5 doses were given to the HEK-293 cells (See TABLES 4, 5 and 6) at final concentrations of 20 nM and 2 nM respectively. The assay used Lipofectamine2000 transfection and a 48 hr treatment cycle, with incubation at 37° C. and 5% C02. Analysis of the mRNA expression was then carried out using a branched DNA assay.

In the case of “128 (ACCCAGACGGGCATTCCTGT; chemistry not given here) [compound 128]”, the “STAT3 Max inihibition 24 nM” value in data set [1] is listed as 79.56. Further, in data set [2], the “STAT3 Inhibition 2 nM” value is given as 61.1; the “STAT3 Inhibition 20 nM” value is listed as 81.1; the IC50 – broadly, the concentration that gives 50% inhibition – is 3560 pM. Also, in data set [3], the “GAPDH Inhibition 20 nM” value is recorded as 19.00.
Consider “102 (TTGGCTCGATCCAGGAGTGT; chemistry not given here) [compound 102]”, for which the “STAT3 Max inihibition 24 nM” value in data set [1] turned out to be 78.02. In data set [2], the “STAT3 Inhibition 2 nM” value is on record as 82.7, the “STAT3 Inhibition 20 nM” value is 89.5 and the IC50 came out at 473 pM. Further, the “GAPDH Inhibition 20 nM” value in data set [3] worked out at 16.00.
Turning to “116 (CTCCTGTTGATCGCAGCGAA; chemistry not given here) [compound 116]”, the “STAT3 Max inihibition 24 nM” value in data set [1] was 69.78. For the same substance, in data set [2], the “STAT3 Inhibition 2 nM” value is reported as 64.5, the “STAT3 Inhibition 20 nM” value was 85.5 and the half-inhibitory concentration (IC50) is 1850 pM. Further, the “GAPDH Inhibition 20 nM” value in data set [3] is 16.00.
In the same order, the values of “134 (CGCAGTCGTGTGTAGCGTTT; chemistry not given here) [compound 134]” are 77.94, 54.3, 82.8, 2130 pM and 10.00.
In the same order, the values of “131 (AGTCGTGTGTAGCGTTTGTT; chemistry not given here) [compound 131]” are 75.20, 58.9, 90.7, 2820 pM and 12.00.
“103 (CTCCTGTTGGCTCGATCCAG; chemistry not given here) [compound 103]”: the “STAT3 Max inihibition 24 nM” value in data set [1] is recorded as 89.93. In data set [2], the “STAT3 Inhibition 2 nM” value turned out to be 82.5, the “STAT3 Inhibition 20 nM” value is given as 95.8 and the concentration for half-maximal inhibition (IC50) was 465 pM. For the same substance, in data set [3], the “GAPDH Inhibition 20 nM” value is listed as 10.00.
In the same order, the values of “137 (ATCTTAATGGGACTCACGGG; chemistry not given here) [compound 137]” are 79.46, 53.0, 87.4, 1800 pM and −2.00.
“115 (CTGTTGATCGCAGCGAAGAT; chemistry not given here) [compound 115]”: the “STAT3 Max inihibition 24 nM” value in data set [1] stood at 78.99. Further, in data set [2], the “STAT3 Inhibition 2 nM” value is 65.2, the “STAT3 Inhibition 20 nM” value is recorded as 90.8 and the half-maximal inhibitory concentration (IC50) was determined as 796 pM. Moreover, the “GAPDH Inhibition 20 nM” value in data set [3] was 3.00.
Consider “250 (GCCAAACAGCGTAACCCCTT; chemistry not given here) [compound 250]”, for which, in data set [4], the “2D GAPDH 20 nM inhibition” value was found to be 27.30 and the GAPDH max inhibition is 33.44. Besides, in data set [5], it took 0.173 nM to reach the 20% level (IC20), the half-maximal inhibitory concentration (IC50) is 0.715 nM, it took 5.68 nM to reach the 80% level (IC80) and the “max. inhib. [%]:” value is reported as 86.3%. The substance also yielded an NRAS max inhibition in data set [5] of 88.02.
Take “238 (CTCCCCGAGATGTTCCCTGG; chemistry not given here) [compound 238]”: in data set [4], the “2D GAPDH 20 nM inhibition” value is reported as 22.48 and the GAPDH max inhibition is 26.33. Besides, in data set [5], the IC20 – broadly, the concentration at which the effect reaches the 20% level – is 0.139 nM; the IC50 is 0.646 nM; the concentration for an effect of 80% (IC80) (as a rule, the concentration needed for an effect of 80%) was found to be 4.79 nM; the “max. inhib. [%]:” value worked out at 88.9%. The NRAS max inhibition in data set [5] turned out to be 90.92.
For the substance “254 (GCCAAACAGCGTAAC; chemistry not given here) [compound 254]”, in data set [4], the “2D GAPDH 20 nM inhibition” value is listed as 20.10 and the GAPDH max inhibition stood at 32.96. In data set [5], the 20% effect level (IC20) was put at 0.067 nM, the IC50 was determined as 0.336 nM, it took 2.11 nM to reach the 80% level (IC80) and the “max. inhib. [%]:” value came out at 93.4%. The NRAS max inhibition in data set [5] turned out to be 96.11.
With “227 (GTTTGGCCGGGCAGAAACTC; chemistry not given here) [compound 227]”, in data set [4], the “2D GAPDH 20 nM inhibition” value was determined as 24.56 and the GAPDH max inhibition worked out at 18.30. Moreover, in data set [5], the 20% effect level (IC20) was put at 0.087 nM, 0.413 nM corresponded to half-maximal inhibition (IC50), the IC80 was determined as 4.05 nM and the “max. inhib. [%]:” value was 86.3%. The substance also displayed an NRAS max inhibition in data set [5] of 87.95.
Consider “206 (GAGCCTGGTTGGAAGCTGCA; chemistry not given here) [compound 206]”, for which, in data set [4], the “2D GAPDH 20 nM inhibition” value was determined as 40.87 and the GAPDH max inhibition turned out to be 44.21. In data set [5], it took 0.117 nM to reach the 20% level (IC20), half-maximal inhibition (IC50) required 0.471 nM, the 80% effect level (IC80) was put at 2.58 nM and the “max. inhib. [%]:” value was 90.9%. In data set [5], the NRAS max inhibition was 94.95.
Take “257 (TCTGCCCGGCCAAACAGCGT; chemistry not given here) [compound 257]”: in data set [4], the “2D GAPDH 20 nM inhibition” value was 21.09 and the GAPDH max inhibition came out at 30.55. In data set [5], the IC20 came to 0.069 nM, the concentration for half-maximal inhibition (IC50) amounted to 0.364 nM, the IC80 turned out to be 3.67 nM and the “max. inhib. [%]:” value is 87.3%. Also, the NRAS max inhibition in data set [5] was 91.79.
With “SEQ ID NO: 232: NRas ASO, starting nucleotide 400, length 20 (CCGGGCAGAAACTCCGCTGA; chemistry not given here)”, in data set [4], the “2D GAPDH 20 nM inhibition” value is recorded as 36.10 and the GAPDH max inhibition is given as 53.16. Further, in data set [5], the IC20 is 0.048 nM, the half-maximal inhibitory concentration (IC50) was 0.245 nM, the concentration for an effect of 80% (IC80) turned out to be 1.59 nM and the “max. inhib. [%]:” value was found to be 93.2%. The substance also showed an NRAS max inhibition in data set [5] of 95.91.
For “200 (GTTATGGTCAGTTAATAGAA; chemistry not given here) [compound 200]”, in data set [4], the “2D GAPDH 20 nM inhibition” value was found to be 33.52 and the GAPDH max inhibition was 38.68. In addition, in data set [5], the 20% effect concentration (IC20) amounted to 0.041 nM, 0.16 nM corresponded to half-maximal inhibition (IC50), the 80% effect level (IC80) was put at 0.666 nM and the “max. inhib. [%]:” value was 97.6%. In data set [5], this substance had an NRAS max inhibition of 98.68.
For the substance “248 (CAAACAGCGTAACCCCTTCT; chemistry not given here) [compound 248]”, in data set [4], the “2D GAPDH 20 nM inhibition” value was found to be 30.77 and the GAPDH max inhibition is reported as 37.96. Besides, in data set [5], the IC20 stood at 0.051 nM, the IC50 amounted to 0.288 nM, the IC80 was 2.4 nM and the “max. inhib. [%]:” value is given as 91.0%. The substance further returned an NRAS max inhibition in data set [5] of 93.72.
In the case of “223 (CGCTGTTTGGCCGGGCAGAA; chemistry not given here) [compound 223]”, in data set [4], the “2D GAPDH 20 nM inhibition” value worked out at 20.53 and the GAPDH max inhibition was determined as 18.44. For the same substance, in data set [5], the 20% effect concentration (IC20) was 0.121 nM, the 50% inhibitory concentration (IC50) amounted to 0.581 nM, the IC80 was determined as 35.4 nM and the “max. inhib. [%]:” value is listed as 80.8%. In addition, the NRAS max inhibition in data set [5] amounted to 85.75.
In the case of “239 (AGGCTCCCCGAGATGTTCCC; chemistry not given here) [compound 239]”, in data set [4], the “2D GAPDH 20 nM inhibition” value is listed as 39.01 and the GAPDH max inhibition is recorded as 37.62. Also, in data set [5], the concentration for an effect of 20% (IC20) was found to be 0.027 nM, the half-maximal inhibitory concentration (IC50) is 0.159 nM, the concentration for an effect of 80% (IC80) came out at 1.46 nM and the “max. inhib. [%]:” value is on record as 90.4%. The same substance displayed an NRAS max inhibition in data set [5] of 94.35.
